Measured values published in PMC6804113, “Cyclic Peptides Acting as Allosteric Inhibitors of Human Thymidylate Synthase and Cancer Cell Growth” (Molecules, 2019).
Like-named read-outs stand apart in the source and are kept apart here. Starred links: 1 amine or outer side, 2 acyl side, 3 side chain; linkers in the order of their positions; H or OH if unused. Positions of bridges follow the written chain, without caps; N, C: chain ends. Non-standard residues stand in square brackets, D forms with d. Residues, ends and D or L forms follow the SMILES beside them. Cysteamide = C(CS[*:3])N[*:1]

How the values were obtained:
[1] = disulfide bond, DMSO/TFA, H2O/DMSO/TFA 75:25:0.1
[2] = biological target: T1, recombinant human thymidylate synthase (hTS) (Homo sapiens, UniProt P04818); assay: hTS inhibition assay (spectrophotometric, absorbance at 340 nm); format: biochemical
T1 construct: made in house
T1 sequence (P04818 whole entry): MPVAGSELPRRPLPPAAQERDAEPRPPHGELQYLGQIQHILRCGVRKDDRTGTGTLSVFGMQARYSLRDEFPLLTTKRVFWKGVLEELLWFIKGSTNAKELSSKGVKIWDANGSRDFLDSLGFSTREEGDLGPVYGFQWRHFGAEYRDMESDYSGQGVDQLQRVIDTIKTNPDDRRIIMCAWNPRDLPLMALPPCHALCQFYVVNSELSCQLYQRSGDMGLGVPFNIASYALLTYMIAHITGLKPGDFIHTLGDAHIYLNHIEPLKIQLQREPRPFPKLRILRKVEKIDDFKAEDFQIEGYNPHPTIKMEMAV

[3] = biological target: T1, recombinant human thymidylate synthase (hTS); assay: as above; format: biochemical; remark: listed apart in the source
Description: hTS was purified as previously reported. The enzyme solution was thawed the day of the experiment and the enzyme concentration was determined by UV−Vis spectroscopy (Varian Cary 100, Agilent, Santa Clara, CA, USA) using ε280 = 89000 M^−1 cm^−1 and Mr = 74 229. The thawed protein solution was kept constantly at 4 °C. In this condition, the enzyme was able to reproduce normal kinetic activity values (KM dUMP = 10−12 μM, KM mTHF = 4−6 μM, kcat = 0.8−0.9 s^−1). The peptide solution was mixed or vortexed in order to help solubilization; the precise concentration was determined through UV−Vis spectroscopy. A stock solution of mTHF was prepared in carbonate buffer. The stock was prepared in the range of 5 to 6 mM. A stock solution of dUMP was prepared in bidistilled water in the range of 10−12 mM. Peptide inhibitors were tested without incubation with hTS in […], at 25 °C. A 1 mL amount of assay buffer consisted of 50 mM TES, pH 7.4, containing 25 mM MgCl2, 6.5 mM HCHO, 1 mM EDTA, 75 mM β-mercaptoethanol (β-ME), 0.120 mM dUMP, and 0.060 mM mTHF. Following the addition of the enzyme (300 nM) and inhibitor mixture, the absorbance was monitored at 340 nm in a UV−Vis spectrophotometer for 3 min. In the control sample, an equal aliquot of enzyme alone was added. hTS activity inhibition percentages (I%) values were measured at 0.100−3000 µM concentration of inhibitor. […] The kinetic inhibition pattern was studied for compound 7 [12]. The inhibition values are expressed as mean ± SEM; n = 3.

IGROV-1 cells = assay: Cytotoxicity, crystal violet cell growth assay, peptides transfected with SAINT-PhD; format: cell-based, human; details: at 10 and 25 µM, ranking among the 10 cPs, SAINT-PhD delivery
Description: The IGROV-1, A2780, and A2780/CP human ovarian cancer cell lines were grown as monolayer in RPMI 1640 medium containing 10% heat-inactivated fetal bovine serum and 50 µg/mL gentamycin sulfate (Euroclone, Devon, UK). Cultures were equilibrated with humidified 5% CO2 in air at 37 °C. The cDDP-resistant variant A2780/CP cell line, derived from the parent A2780 cell line, is about 10-fold resistant to cDDP and was developed by monthly exposure to cDDP, followed by chronic exposure to stepwise increases in cDDP concentration. All studies were performed in Mycoplasma negative cells, as routinely determined with the MycoAlert Mycoplasma detection kit (Lonza, Walkersville, MD, USA).
Treatment with each peptide was performed according to the standard transfection protocol of the SAINT-PhD delivery system (Synvolux Therapeutics, Leiden, Netherlands). Complexes of peptide (µg) with SAINT-PhD (µL) were prepared at appropriate ratios corresponding to the approximate µM concentrations indicated. For each protein sample, complexes were prepared as follows: for the treatment of a 24-well plate, the appropriate amount of each peptide was diluted in HBS, then SAINT-PhD was pipetted into the solution without vortexing; then, the mixture was incubated for 5 min at room temperature, and filled up to 500 µL with serum-free medium. The culture medium was aspirated from the cells, the SAINT-PhD/peptide complex was added to the wells and incubated 4 h (37 °C, 5% CO2). Afterward, complete RPMI was added to reach the appropriate volume for maintaining the cell culture for the duration of the experiments.
Cell growth was determined using a modified crystal violet assay. On selected days, the tissue culture medium was removed, and the cell monolayer fixed with methanol and stained with 0.2% crystal violet solution in 20% methanol for at least 30 min. After being washed several times with distilled water to remove excess dye, the cells were left to dry. The incorporated dye was solubilized in acidified isopropanol (1N HCl: 2-propanol, 1:10). After appropriate dilution, absorbance was determined spectrophotometrically at 540 nm. The extracted dye was proportional to cell biomass. The percentage of cytotoxicity was calculated by comparing the absorbance of cultures exposed to the drug to unexposed (control) cultures.

Compound: CC(C)C[C@@H]1NC(=O)[C@@H](CCC(N)=O)NC(=O)[C@@H](NC(=O)[C@H](CO)NC(=O)[C@@H](N)CC(C)C)CSSC[C@@H](C(=O)N[C@@H](CCCNC(=N)N)C(=O)O)NC(=O)[C@H](Cc2ccc(O)cc2)NC1=O [Leu-Ser-c[Cys-D-Gln-Leu-Tyr-Cys-]Arg]
- ring closure, yield after HPLC ([1]; from H-Leu-Ser-Cys-dGln-Leu-Tyr-Cys-Arg-OH, 17-membered ring, 1.01 mM): 29%

Compound: CC(C)C[C@@H]1NC(=O)[C@H](CCC(N)=O)NC(=O)[C@@H]2CCCN2C(=O)[C@H](CO)NC(=O)[C@@H](N)CSSC[C@@H](C(=O)O)NC(=O)[C@H](CCC(N)=O)NC(=O)[C@H](Cc2ccc(O)cc2)NC1=O [c[Cys-Ser-Pro-Gln-Leu-Tyr-Gln-Cys]]
- ring closure, yield after HPLC ([1]; from H-Cys-Ser-Pro-Gln-Leu-Tyr-Gln-Cys-OH, 26-membered ring, 1.06 mM): 25%

Compound: CC(C)C[C@@H]1NC(=O)[C@H](CCC(N)=O)NC(=O)[C@H](C)NC(=O)[C@@H](NC(=O)[C@@H](N)CC(C)C)CSSC[C@@H](C(=O)O)NC(=O)[C@H](CCC(N)=O)NC(=O)[C@H](Cc2ccc(O)cc2)NC1=O [Leu-c[Cys-Ala-Gln-Leu-Tyr-Gln-Cys]]
- ring closure, yield after HPLC ([1]; from H-Leu-Cys-Ala-Gln-Leu-Tyr-Gln-Cys-OH, 23-membered ring, 1.06 mM): 30%

Compound: CC(C)C[C@@H]1NC(=O)[C@@H](CCC(N)=O)NC(=O)[C@@H](NC(=O)[C@H](CO)NC(=O)[C@@H](N)CC(C)C)CSSCCNC(=O)[C@H](CCCNC(=N)N)NC(=O)[C@H](CCC(N)=O)NC(=O)[C@H](Cc2ccc(O)cc2)NC1=O [Leu-Ser-c[Cys-D-Gln-Leu-Tyr-Gln-Arg-CAM-]]
- ring closure, yield after HPLC ([1]; from H-Leu-Ser-Cys-dGln-Leu-Tyr-Gln-Arg-NHCH2CH2SH, 23-membered ring, 0.94 mM): 13%

Compound: CC(C)C[C@@H]1NC(=O)[C@@H](CCC(N)=O)NC(=O)[C@@H](NC(=O)[C@H](CO)NC(=O)[C@@H](N)CC(C)C)CSSC[C@@H](C(=O)N[C@@H](CCCNC(=N)N)C(=O)O)NC(=O)[C@H](Cc2ccc(O)cc2)NC1=O [Peptide 5, Leu-Ser-c[Cys-D-Gln-Leu-Tyr-Cys]-Arg] (H-LSC[dQ]LYCR-OH; disulfide 3-7; N-terminus assumed)
- % inhibition of hTS ([2]; at 500 µM and 37 °C under stirring): N.I. at 500 µM and r.t. N.I. at 500 µM and 37 °C under stirring
- % inhibition of hTS ([3]; at 500 µM and r.t.): N.I. at 500 µM and r.t. N.I. at 500 µM and 37 °C under stirring

Compound: CC(C)C[C@@H]1NC(=O)[C@@H](CCC(N)=O)NC(=O)[C@@H](NC(=O)[C@H](CO)NC(=O)[C@@H](N)CC(C)C)CSSC[C@@H](C(=O)O)NC(=O)[C@H](CCC(N)=O)NC(=O)[C@H](Cc2ccc(O)cc2)NC1=O [Leu-Ser-c[Cys-D-Gln-Leu-Tyr-Gln-Cys-]]
- ring closure, yield after HPLC ([1]; from H-Leu-Ser-Cys-dGln-Leu-Tyr-Gln-Cys-OH, 20-membered ring, 1.04 mM): 18%

Compound: CC(C)C[C@@H]1NC(=O)[C@@H](CCC(N)=O)NC(=O)[C@@H](NC(=O)[C@H](CO)NC(=O)[C@@H](N)CC(C)C)CSSCCNC(=O)[C@H](CCCNC(=N)N)NC(=O)[C@H](CCC(N)=O)NC(=O)[C@H](Cc2ccc(O)cc2)NC1=O [Peptide 3, Leu-Ser-c[Cys-D-Gln-Leu-Tyr-Gln-Arg-CAM]] (H-LSC[dQ]LYQR-Cysteamide; disulfide 3-C)
- % inhibition of hTS ([3]; at 500 µM and r.t.): inactive

Compound: CC(C)C[C@@H]1NC(=O)[C@H](CCC(N)=O)NC(=O)[C@@H](NC(=O)[C@H](CO)NC(=O)[C@@H](N)CC(C)C)CSSCCNC(=O)[C@H](CCCNC(=N)N)NC(=O)[C@H](CCC(N)=O)NC(=O)[C@H](Cc2ccc(O)cc2)NC1=O [Leu-Ser-c[Cys-Gln-Leu-Tyr-Gln-Arg-CAM-]]
- ring closure, yield after HPLC ([1]; from H-Leu-Ser-Cys-Gln-Leu-Tyr-Gln-Arg-NHCH2CH2SH, 23-membered ring, 0.94 mM): 15%

Compound: CC(C)C[C@@H]1NC(=O)[C@H](CCC(N)=O)NC(=O)[C@@H]2CCCN2C(=O)[C@@H](NC(=O)[C@@H](N)CC(C)C)CSSCCNC(=O)[C@H](CCCNC(=N)N)NC(=O)[C@H](CCC(N)=O)NC(=O)[C@H](Cc2ccc(O)cc2)NC1=O [Leu-c[Cys-Pro-Gln-Leu-Tyr-Gln-Arg-CAM]]
- ring closure, yield after HPLC ([1]; from H-Leu-Cys-Pro-Gln-Leu-Tyr-Gln-Arg-NHCH2CH2SH, 26-membered ring, 0.93 mM): 10%

Compound: CC(C)C[C@@H]1NC(=O)[C@H](CCC(N)=O)NC(=O)[C@@H]2CCCN2C(=O)[C@@H](NC(=O)[C@@H](N)CC(C)C)CSSC[C@@H](C(=O)N[C@@H](CCCNC(=N)N)C(=O)O)NC(=O)[C@H](Cc2ccc(O)cc2)NC1=O [Peptide 7, Leu-c[Cys-Pro-Gln-Leu-Tyr-Cys]-Arg] (H-LCPQLYCR-OH; disulfide 2-7)
- cytotoxicity (in words) (IGROV-1 cells): intermediate cytotoxicities
- inhibition at 100 µM ([3]; at 100 µM and r.t. under stirring): 59%
- inhibition at 500 µM ([3]; at 500 µM and r.t.): 76%
- Ki ([3]; kinetic inhibition pattern, Figure S1, read-out: apparent KI): 120 to 150 µM

Compound: CC(C)C[C@@H]1NC(=O)[C@H](CCC(N)=O)NC(=O)[C@@H](NC(=O)[C@H](CO)NC(=O)[C@@H](N)CC(C)C)CSSCCNC(=O)[C@H](CCCNC(=N)N)NC(=O)[C@H](CCC(N)=O)NC(=O)[C@H](Cc2ccc(O)cc2)NC1=O [Peptide 1, Leu-Ser-c[Cys-Gln-Leu-Tyr-Gln-Arg-CAM]] (H-LSCQLYQR-Cysteamide; disulfide 3-C)
- IC50 ([2]; room temperature (20–22 °C) under stirring, standard error ±20% of the value): 2120 µM
- inhibition at 400 µM ([3]; at 400 µM and r.t. under stirring): 25%

Compound: CC(C)C[C@@H]1NC(=O)[C@@H](CCC(N)=O)NC(=O)[C@@H](NC(=O)[C@H](CO)NC(=O)[C@@H](N)CC(C)C)CSSC[C@@H](C(=O)O)NC(=O)[C@H](CCC(N)=O)NC(=O)[C@H](Cc2ccc(O)cc2)NC1=O [Peptide 4, Leu-Ser-c[Cys-D-Gln-Leu-Tyr-Gln-Cys]] (H-LSC[dQ]LYQC-OH; disulfide 3-8)
- cytotoxicity (in words) (IGROV-1 cells): least active
- % inhibition of hTS ([3]; at 500 µM and r.t.): inactive

Compound: CC(C)C[C@@H]1NC(=O)[C@H](CCC(N)=O)NC(=O)[C@@H]2CCCN2C(=O)[C@@H](NC(=O)[C@@H](N)CC(C)C)CSSC[C@@H](C(=O)N[C@@H](CCCNC(=N)N)C(=O)O)NC(=O)[C@H](Cc2ccc(O)cc2)NC1=O [Leu-c[Cys-Pro-Gln-Leu-Tyr-Cys-]Arg]
- ring closure, yield after HPLC ([1]; from H-Leu-Cys-Pro-Gln-Leu-Tyr-Cys-Arg-OH, 20-membered ring, 1.0 mM): 18%

Compound: CC(C)C[C@@H]1NC(=O)[C@H](CCC(N)=O)NC(=O)[C@@H]2CCCN2C(=O)[C@@H](NC(=O)[C@@H](N)CC(C)C)CSSC[C@@H](C(=O)O)NC(=O)[C@H](CCC(N)=O)NC(=O)[C@H](Cc2ccc(O)cc2)NC1=O [Leu-c[Cys-Pro-Gln-Leu-Tyr-Gln-Cys-]]
- ring closure, yield after HPLC ([1]; from H-Leu-Cys-Pro-Gln-Leu-Tyr-Gln-Cys-OH, 23-membered ring, 1.03 mM): 22%

Compound: CC(C)C[C@@H]1NC(=O)[C@H](CCC(N)=O)NC(=O)[C@@H]2CCCN2C(=O)[C@@H](NC(=O)[C@@H](N)CC(C)C)CSSC[C@@H](C(=O)N[C@@H](CCC(N)=O)C(=O)N[C@@H](CCCNC(=N)N)C(=O)O)NC1=O [Leu-c[Cys-Pro-Gln-Leu-Cys-]Gln-Arg]
- ring closure, yield after HPLC ([1]; from H-Leu-Cys-Pro-Gln-Leu-Cys-Gln-Arg-OH, 17-membered ring, 1.04 mM): 25%
